Measured values published in patent EP0550016A1, “Novel quinolone carboxylic acid derivatives and processes for preparing same” (KOREA RESEARCH INSTITUTE OF CHEMICAL TECHNOLOGY, priority 1991, dated 1993).
Converted amounts (≈) assume the structure as drawn.

Tests used:
Format in all cases: cell-based
[1] = test system: Staphylococcus aureus 694 E; experiment: In vitro anti-bacterial activity test (MIC, two-fold dilution method), Table 2 strains; details: Table 2 strain 8: Staphylococcus aureus 694 E; read-out: MIC
[2] = test system: Pseudomonas aeruginosa 1771 M; experiment: In vitro anti-bacterial activity test (MIC, two-fold dilution method) against the standard strains; details: Table 1 strain 15: Pseudomonas aeruginosa 1771 M
[3] = test system: Staphylococcus aureus 697 E; experiment: In vitro anti-bacterial activity test (MIC, two-fold dilution method), Table 2 strains; details: Table 2 strain 10: Staphylococcus aureus 697 E
[4] = test system: Enterobacter cloacae 1321 E; experiment: In vitro anti-bacterial activity test (MIC, two-fold dilution method) against the standard strains; details: Table 1 strain 20: Enterobacter cloacae 1321 E
[5] = test system: Staphylococcus aureus 121 E; experiment: In vitro anti-bacterial activity test (MIC, two-fold dilution method), Table 2 strains; details: Table 2 strain 2: Staphylococcus aureus 121 E; read-out: MIC
Escherichia coli DC 2 = experiment: In vitro anti-bacterial activity test (MIC, two-fold dilution method) against the standard strains; details: DC2; Table 1 strain 9: Escherichia coli DC 2; read-out: MIC
[6] = test system: Staphylococcus aureus 701 E; experiment: In vitro anti-bacterial activity test (MIC, two-fold dilution method), Table 2 strains; details: Table 2 strain 11: Staphylococcus aureus 701 E; read-out: MIC
Escherichia coli DC 0 [7] = experiment: In vitro anti-bacterial activity test (MIC, two-fold dilution method) against the standard strains; details: DC0; Table 1 strain 8: Escherichia coli DC 0
[8] = test system: Streptococcus faecium MD 8b; experiment: as above; details: Enterococcus faecium, MD8B; Table 1 strain 3: Streptococcus faecium MD 8b; read-out: MIC
[9] = test system: Staphylococcus aureus 693 E; experiment: In vitro anti-bacterial activity test (MIC, two-fold dilution method), Table 2 strains; details: Table 2 strain 7: Staphylococcus aureus 693 E; read-out: MIC
[10] = test system: Staphylococcus aureus 703 E; experiment: as above; details: Table 2 strain 12: Staphylococcus aureus 703 E; read-out: MIC
[11] = test system: Streptococcus pyogenes 77 A; experiment: In vitro anti-bacterial activity test (MIC, two-fold dilution method) against the standard strains; details: Table 1 strain 2: Streptococcus pyogenes 77 A; read-out: MIC
[12] = test system: Streptococcus pyogenes 308 A; experiment: as above; details: Table 1 strain 1: Streptococcus pyogenes 308 A
[13] = test system: Staphylococcus aureus 208 E; experiment: In vitro anti-bacterial activity test (MIC, two-fold dilution method), Table 2 strains; details: Table 2 strain 3: Staphylococcus aureus 208 E; read-out: MIC
[14] = test system: Staphylococcus aureus 285; experiment: In vitro anti-bacterial activity test (MIC, two-fold dilution method) against the standard strains; details: Table 1 strain 5: Staphylococcus aureus 285; read-out: MIC
[15] = test system: Klebsiella aerogenes 1082 E; experiment: as above; details: Table 1 strain 17: Klebsiella aerogenes 1082 E
[16] = test system: Klebsiella aerogenes 1522 E; experiment: as above; details: Table 1 strain 18: Klebsiella aerogenes 1522 E
Salmonella typhimurium = experiment: as above; details: Salmonella enterica; Table 1 strain 16: Salmonella typhimurium
[17] = test system: Enterobacter cloacae P 99; experiment: as above; details: P99; Table 1 strain 19: Enterobacter cloacae P 99
[18] = test system: Staphylococcus aureus 695 E; experiment: In vitro anti-bacterial activity test (MIC, two-fold dilution method), Table 2 strains; details: Table 2 strain 9: Staphylococcus aureus 695 E; read-out: MIC
Escherichia coli 1507 E = experiment: In vitro anti-bacterial activity test (MIC, two-fold dilution method) against the standard strains; details: Table 1 strain 11: Escherichia coli 1507 E
[19] = test system: Pseudomonas aeruginosa 1592 E; experiment: as above; details: Table 1 strain 13: Pseudomonas aeruginosa 1592 E
[20] = test system: Staphylococcus aureus 690 E; experiment: In vitro anti-bacterial activity test (MIC, two-fold dilution method), Table 2 strains; details: Table 2 strain 5: Staphylococcus aureus 690 E; read-out: MIC
[21] = test system: Staphylococcus aureus 711 E; experiment: as above; details: Table 2 strain 17: Staphylococcus aureus 711 E; read-out: MIC
Escherichia coli DC 0 [22] = experiment: In vitro anti-bacterial activity test (MIC, two-fold dilution method) against the standard strains; details: DC0; Table 1 strain 7: Escherichia coli DC 0
[23] = test system: Staphylococcus aureus 714 E; experiment: In vitro anti-bacterial activity test (MIC, two-fold dilution method), Table 2 strains; details: Table 2 strain 18: Staphylococcus aureus 714 E; read-out: MIC
[24] = test system: Staphylococcus aureus 705 E; experiment: as above; details: Table 2 strain 13: Staphylococcus aureus 705 E; read-out: MIC
[25] = test system: Staphylococcus aureus 692 E; experiment: as above; details: Table 2 strain 6: Staphylococcus aureus 692 E
[26] = test system: Staphylococcus aureus 707 E; experiment: as above; details: Table 2 strain 15: Staphylococcus aureus 707 E; read-out: MIC
[27] = test system: Pseudomonas aeruginosa 9027; experiment: In vitro anti-bacterial activity test (MIC, two-fold dilution method) against the standard strains; details: Table 1 strain 12: Pseudomonas aeruginosa 9027
[28] = test system: Staphylococcus aureus 503; experiment: as above; details: Table 1 strain 6: Staphylococcus aureus 503; read-out: MIC
[29] = test system: Staphylococcus aureus 88 E; experiment: In vitro anti-bacterial activity test (MIC, two-fold dilution method), Table 2 strains; details: Table 2 strain 1: Staphylococcus aureus 88 E
[30] = test system: Pseudomonas aeruginosa 1771; experiment: In vitro anti-bacterial activity test (MIC, two-fold dilution method) against the standard strains; details: Table 1 strain 14: Pseudomonas aeruginosa 1771
[31] = test system: Staphylococcus aureus 706 E; experiment: In vitro anti-bacterial activity test (MIC, two-fold dilution method), Table 2 strains; details: Table 2 strain 14: Staphylococcus aureus 706 E; read-out: MIC
Escherichia coli OTEM = experiment: In vitro anti-bacterial activity test (MIC, two-fold dilution method) against the standard strains; details: Table 1 strain 10: Escherichia coli OTEM
[32] = test system: Staphylococcus aureus 256 E; experiment: In vitro anti-bacterial activity test (MIC, two-fold dilution method), Table 2 strains; details: Table 2 strain 4: Staphylococcus aureus 256 E
[33] = test system: Staphylococcus aureus SG 511; experiment: In vitro anti-bacterial activity test (MIC, two-fold dilution method) against the standard strains; details: SG511; Table 1 strain 4: Staphylococcus aureus SG 511
[34] = test system: Staphylococcus aureus 708 E; experiment: In vitro anti-bacterial activity test (MIC, two-fold dilution method), Table 2 strains; details: Table 2 strain 16: Staphylococcus aureus 708 E
[35] = test system: Staphylococcus aureus 725 E; experiment: as above; details: Table 2 strain 19: Staphylococcus aureus 725 E; read-out: MIC

Structure (SMILES) | MIC [1] [µg/mL] | MIC [2] [µg/mL] | MIC [3] [µg/mL] | MIC [4] [µg/mL] | MIC [5] [µg/mL] | MIC (Escherichia coli DC 2) [µg/mL] | MIC [6] [µg/mL] | MIC (Escherichia coli DC 0 [7]) [µg/mL] | MIC [8] [µg/mL] | MIC [9] [µg/mL] | MIC [10] [µg/mL] | MIC [11] [µg/mL] | MIC [12] [µg/mL] | MIC [13] [µg/mL] | MIC [14] [µg/mL] | MIC [15] [µg/mL] | MIC [16] [µg/mL] | MIC (Salmonella typhimurium) [µg/mL] | MIC [17] [µg/mL] | MIC [18] [µg/mL] | other results
CNC1CC12CCN(c1c(F)cc3c(=O)c(C(=O)O)cn(C4CC4)c3c1F)C2 (stereo not drawn) [Example 8, 7-(1-methylamino-5-azaspiro[2,4]heptane-5-yl)-1-cyclopropyl-6,8-difluoro-1,4-dihydro-4-oxo-quinoline-3-carboxylic acid] | 0.391 (≈ 1 µM) | 0.391 (≈ 1 µM) | 0.049 (≈ 0.126 µM) | 0.025 (≈ 0.0642 µM) | 0.098 (≈ 0.252 µM) | 0.098 (≈ 0.252 µM) | 0.195 (≈ 0.501 µM) | 0.391 (≈ 1 µM) | 0.195 (≈ 0.501 µM) | 0.049 (≈ 0.126 µM) | 0.195 (≈ 0.501 µM) | 0.195 (≈ 0.501 µM) | 0.391 (≈ 1 µM) | 0.098 (≈ 0.252 µM) | 0.049 (≈ 0.126 µM) | 0.004 (≈ 0.0103 µM) | 0.098 (≈ 0.252 µM) | 0.049 (≈ 0.126 µM) | 0.049 (≈ 0.126 µM) | 0.049 (≈ 0.126 µM) | MIC (Escherichia coli 1507 E): 0.049 µg/mL (≈ 0.126 µM); MIC [19]: 1.56 µg/mL (≈ 4.01 µM); MIC [20]: 0.049 µg/mL (≈ 0.126 µM); MIC [21]: 0.049 µg/mL (≈ 0.126 µM); MIC (Escherichia coli DC 0 [22]): 0.013 µg/mL (≈ 0.0334 µM); MIC [23]: 0.049 µg/mL (≈ 0.126 µM); MIC [24]: 0.195 µg/mL (≈ 0.501 µM); MIC [25]: 0.049 µg/mL (≈ 0.126 µM); MIC [26]: 0.195 µg/mL (≈ 0.501 µM); MIC [27]: 1.56 µg/mL (≈ 4.01 µM); MIC [28]: 0.049 µg/mL (≈ 0.126 µM); MIC [29]: 0.098 µg/mL (≈ 0.252 µM); MIC [30]: 1.56 µg/mL (≈ 4.01 µM); MIC [31]: 0.098 µg/mL (≈ 0.252 µM); MIC (Escherichia coli OTEM): 0.049 µg/mL (≈ 0.126 µM); MIC [32]: 0.195 µg/mL (≈ 0.501 µM); MIC [33]: 0.049 µg/mL (≈ 0.126 µM); MIC [34]: 0.049 µg/mL (≈ 0.126 µM); MIC [35]: 0.098 µg/mL (≈ 0.252 µM)
CNC1CC12CCN(c1c(F)cc3c(=O)c(C(=O)O)cn(C4CC4)c3c1Cl)C2 (stereo not drawn) [Example 9, 7-(1-methylamino-5-azaspiro[2,4]heptane-5-yl)-8-chloro-1-cyclopropyl-6-fluoro-1,4-dihydro-4-oxo-quinoline-3-carboxylic acid] | 0.098 (≈ 0.241 µM) | 0.781 (≈ 1.92 µM) | 0.049 (≈ 0.121 µM) | 0.025 (≈ 0.0616 µM) | 0.098 (≈ 0.241 µM) | 0.098 (≈ 0.241 µM) | 0.098 (≈ 0.241 µM) | 0.391 (≈ 0.963 µM) | 0.195 (≈ 0.48 µM) | 0.049 (≈ 0.121 µM) | 0.098 (≈ 0.241 µM) | 0.195 (≈ 0.48 µM) | 0.391 (≈ 0.963 µM) | 0.098 (≈ 0.241 µM) | 0.049 (≈ 0.121 µM) | 0.025 (≈ 0.0616 µM) | 0.195 (≈ 0.48 µM) | 0.049 (≈ 0.121 µM) | 0.098 (≈ 0.241 µM) | 0.049 (≈ 0.121 µM) | MIC (Escherichia coli 1507 E): 0.098 µg/mL (≈ 0.241 µM); MIC [19]: 1.56 µg/mL (≈ 3.85 µM); MIC [20]: 0.049 µg/mL (≈ 0.121 µM); MIC [21]: 0.025 µg/mL (≈ 0.0616 µM); MIC (Escherichia coli DC 0 [22]): 0.025 µg/mL (≈ 0.0616 µM); MIC [23]: 0.098 µg/mL (≈ 0.241 µM); MIC [24]: 0.098 µg/mL (≈ 0.241 µM); MIC [25]: 0.049 µg/mL (≈ 0.121 µM); MIC [26]: 0.098 µg/mL (≈ 0.241 µM); MIC [27]: 3.12 µg/mL (≈ 7.7 µM); MIC [28]: 0.049 µg/mL (≈ 0.121 µM); MIC [29]: 0.195 µg/mL (≈ 0.48 µM); MIC [30]: 1.56 µg/mL (≈ 3.85 µM); MIC [31]: 0.098 µg/mL (≈ 0.241 µM); MIC (Escherichia coli OTEM): 0.049 µg/mL (≈ 0.121 µM); MIC [32]: 0.098 µg/mL (≈ 0.241 µM); MIC [33]: 0.049 µg/mL (≈ 0.121 µM); MIC [34]: 0.025 µg/mL (≈ 0.0616 µM); MIC [35]: 0.098 µg/mL (≈ 0.241 µM)
